These results are taken from PMC6832134, “Discovery of Novel Integrase Inhibitors Acting outside the Active Site Through High-Throughput Screening” (Molecules, 2019).

One data set addresses T1, HIV-1 IN (Human immunodeficiency virus type 1 group M subtype B, UniProt P12497).
T1 construct: 250 nM of recombinant HIV-1 integrase; made in house; host or cells: E. coli RosettaII
As to the kind of experiment: Gel-based IN 3'-processing assay. It is filed as biochemical. The conditions noted are these: at least three independent experiments, read-out: In Vitro IC50 +/−SD, 3'-P. The method, then:
(§1) IN reactions were carried out by adding drugs or an equivalent volume of 100% DMSO (dimethyl sulfoxide, used as the drug solvent) to a mixture of 20 nM duplex DNA (21T/21B) and 400 nM IN in 50 mM MOPS pH 7.2, 7.5 mM MgCl2, and 14 mM 2-mercaptoethanol. Reactions were performed at 37 °C for 2 h and quenched by addition of an equal volume of loading buffer [formamide containing 1% SDS (sodium dodecyl sulfate), 0.25% bromophenol blue, and xylene cyanol]. Reaction products were separated in 16% polyacrylamide denaturing sequencing gels. Dried gels were visualized using a Typhoon 8600 (GE Healthcare, Piscataway, NJ, USA). Densitometric analyses were performed using the ImageQuant 5.1 software from GE Healthcare. Data analyses (linear regression, IC50 determination, and standard deviation) were performed using Prism 6.05 software from GraphPad.

A further data set can be described thus: in vitro. The conditions noted are these: human.
In a further data set the target is T2, HIV-1 IN (WT) (Human immunodeficiency virus type 1 group M subtype B, UniProt P12497).
T2 construct: 250 nM of recombinant HIV-1 integrase; made in house; host or cells: E. coli RosettaII
Description: Gel-based IN strand transfer assay, WT enzyme. Type of data set: biochemical. The method, then:
as §1

A further data set has as its target T3, HIV-1 IN mutant Y143R (Human immunodeficiency virus type 1 group M subtype B, UniProt P12497, Y1290R).
T3 construct: RAL-resistant HIV-1 mutant integrases; made in house; host or cells: E. coli RosettaII
Description: Gel-based IN strand transfer assay, Y143R mutant. It is filed as biochemical. The method, then: as §1

The target of another data set is T4, full-length IN (1–288) (Human immunodeficiency virus type 1 group M subtype B, UniProt P12497).
T4 construct: using full-length IN (1–288), the isolated catalytic core domain (CCD) (51–212); made in house; host or cells: E. coli RosettaII
Description: Schiff base IN-DNA crosslinking assay, full-length IN. Type of data set: binding, HIV-1. From the text:
To gain further evidence that NSC34931 interferes with DNA binding, and to determine the role of outer domains in this inhibition, we evaluated the ability of NSC34931 to inhibit the formation of IN-DNA crosslinks using our previously described Schiff base assay. Briefly, a deoxyuracyl nucleotide is incorporated in the DNA substrate to generate an abasic site via uracyl DNA glycosylase. IN forms a covalent complex (Schiff base), which can be stabilized by reduction with sodium borohydride (Figure 5A). Full-length IN, but also the isolated CCD or CTD domains, can crosslink DNA ([…]). Consistent with anisotropy data, NSC34931 suppresses the formation of IN-DNA crosslinks in the context of the full-length IN (Figure 5B, upper gel). Of note, the effective dose to inhibit this reaction is similar to that needed to inhibit 3′-P or ST (about 0.45 µM). In contrast, the IN CCD requires a 10 times higher concentration of compound to prevent DNA crosslinking, confirming that the NTD or the CTD are important for NSC34931 inhibition. Lastly, the same experiment was conducted with the isolated CTD (Figure 5B, lower gel).
Figure 5 Inhibition of IN-DNA binding by NSC34931. (A) Principle of the Schiff base crosslinking assay. An abasic site was introduced by uracil DNA glycosylase in the DNA substrate at the -12 position. […]

Where two headings read alike, the source gives them in different places.

`O=S(=O)(O)c1cc(/N=N/c2cc(S(=O)(=O)O)c3ccccc3c2O)ccc1/C=C/c1ccc(/N=N/c2cc(S(=O)(=O)O)c3ccccc3c2O)cc1S(=O)(=O)O` [NSC34931]: the IC50 came to 320 ± 120 nM on HIV-1 IN; 180 ± 70 nM at HIV-1 IN (WT) (gel-based assay, coupled ST, at least three independent experiments, read-out: In Vitro IC50 +/−SD, ST); 230 nM on HIV-1 IN (WT) (precleaved substrate (bypassing the 3'-P step), data not shown, read-out: IC50, ST inhibition with precleaved substrate); 240 nM against HIV-1 IN mutant Y143R. Besides, in the data set “in vitro”, the CC50 worked out at 59000 nM. For the same compound, the “activity with Mg2+ or Mn2+ as metal cofactor” value on HIV-1 IN (WT) (data not shown) was “equally active”. At full-length IN (1–288), the “effective dose to inhibit IN-DNA crosslink formation” value was “about 0.45 µM”.
